These results are taken from US6359142B1 (priority 1998, dated 2002).

The test system of series [1] is Phytophthora infestans. Format: in vivo. The conditions noted are these: tomato, protective, application rate 50 g/ha, evaluation 3 days after inoculation; 0% = control, 100% = no infection.
The nature of series [2]: log p.

The structures appear in SMILES notation.

Consider `CCc1c(C#N)oc(=O)n1S(=O)(=O)c1c(C)noc1C` [Example 1, 5-cyano4-ethyl-3-(3,5-dimethyl-isoxazole-4-sulphonyl)-3H-[1,3]-oxazol-2-one], for which the melting point is 117 to 122 °C. The Efficacy in % in series [1] is 94%. In series [2], this compound showed a logP of 2.87.
In turn, `CCc1[nH]c(=O)oc1C#N` [5-cycano-4-ethyl-3H-[1,3]-oxazol-2-one] gave a logP in series [2] of 0.88.

Broadly, the melting point is the temperature, or range, at which the solid turns liquid. As usually defined, the logP is the decadic logarithm of the partition coefficient of the neutral form, usually between octanol and water. A low value points to lower lipophilicity.
